In patent publication US20220306585A1, “PYRAZOLE DERIVATIVES FOR CONTROLLING ARTHROPODS” (Bayer Animal Health GmbH, priority 2019, published 2022):
Converted amounts (≈) assume the structure as drawn.

Key:
[1] = Measurement of solubility in buffer at pH 6.5; assay type: physicochemical; details: aqueous buffer, kinetic from dmso stock; PBS buffer pH 6.5, shaken 24 h at rt, LC-MSMS; read-out: Solubility of example compounds at pH 6.5
Experimental: Measurement of Solubility in Buffer at pH 6.5 2-4 mg of the test compound are dissolved in DMSO to reach a concentration of 50 g/L (solution A). To 10 μL of this solution 960 μL PBS buffer pH 6.5 are added (final concentration: […]); the mixture is shaken for 24 h at rt in a 96 well plate. An aliquot is centrifuged at 42000 rpm für 30 min. The supernatant is diluted with acetonitrile/water (8:2) 1:10 and 1:1000 resp. This diluted samples are analyzed by LC-MSMS. Calibration: 10 μL of solution A are diluted with 823 μL DMSO (final concentration: 600 μg/mL), which is further diluted with acetonitrile/water 8:2 by a factor of 100 (provides solution B). The calibration curve is obtained from solution B by further diluting with acetonitrile/water 8:2 with target concentrations of 1.2-12-60-600 ng/mL and injecting these four solutions for MS measurement. PBS-Puffer: 6.18 g sodium chloride and 3.96 g sodium dihydrogen phosphate are dissolved in 1 L aqua dist., the pH is adjusted to 6.5 with IN sodium hydroxide.

[2] = Measurement of stability of prodrugs in buffer at pH 7.4; assay type: physicochemical; details: PBS buffer pH 7.4, 37° C., HPLC peak area, read-out: % Recovery after 24 h (stability at pH 7.4)
Experimental: Preparation of the PBS buffer solution pH 7.4: 90 g sodium chloride, 13.61 g potassium dihydrogen phosphate, 83.35 g 1M aqueous sodium hydroxide were dissolved in water. More water was added up to a total volume of 1 L. This solution was diluted 1:10 with water. Eventually, pH was adjusted to pH 7.4 by the addition of phosphoric acid.
Measurement of Stability of Prodrugs in Buffer at pH 7.4
0.15 mg of the test compound were dissolved in 0.1 mL dimethylsulfoxide and 0.4 mL acetonitrile. For complete dissolution, the HPLC vial with the sample solution was shaken and treated with ultrasound. Then, 1.0 mL of PBS buffer solution pH 7.4 was added and the sample was vortexed. The sample solution was analysed by HPLC (method 8) to determine the amount of the test compound at a particular time over a period of 24 h at 37° C. The peak areas, given as percentage of total area, are used for quantification. In addition, the reaction mixture was analysed by method 9 (HPLC-MS) at the final timepoint.

[3] = Degradation of prodrugs and release of parent drug in rat plasma; assay type: in vitro ADME; details: male, Hannover-Janvier RjHan, rat plasma (Li-heparin), 37° C., percent area of prodrug at t0
Experimental: Measurement of Release of Parent Drug in Rat Plasma 1 mg of the test compound was dissolved in 0.5 mL acetonitrile/dimethylsulfoxide 9:1. For complete dissolution the HPLC vial was shaken and treated with ultrasound. 20 μL of this solution were added to 1 mL of rat plasma (Li-heparin plasma, Hannover-Janvier rat, RjHan male) with vortexing at a temperature of 37° C. Aliquots (100 μL each) were taken at 0.17, 0.5, 1, 1.5, 2 and 4 hours. Each aliquot was transferred to a vial containing 300 μL of acetonitrile/citric acid buffer pH 3 8:2. These solutions were centrifuged at 5000 rpm for 10 minutes. The supernatant was analysed by HPLC (Method 8) to determine the amount of the test compound. In addition, the reaction mixture was analysed by method 9 (HPLC-MS) at the final timepoint. Both decrease of the prodrug concentration and increase of parent drug concentration were monitored. All data is given as percent area of the prodrug at to.

[4] = system: Ctenocephalides felis adult; assay: Antiparasitic activity after administration to rats: fleas; assay type: in vivo; details: for In-vivo Efficacy SD2 / In-vivo Efficacy SD9 / In-vivo Efficacy SD16 / In-vivo Efficacy SD23 / In-vivo Efficacy SD30 / In-vivo Efficacy SD37: Ctenocephalides felis adult; for In-vivo Efficacy SD2: study day 2; for In-vivo Efficacy SD9: study day 9; for In-vivo Efficacy SD16: study day 16; for In-vivo Efficacy SD23: study day 23; for In-vivo Efficacy SD30: study day 30; for In-vivo Efficacy SD37: study day 37
Experimental: (§1) Measurement of the Antiparasitic Activity after Administration of a Prodrug to Rats Compounds were dissolved in the appropriate volume of glycerol formal (p.a.) just before application to the animals (dose volume was adjusted to 0.03 mL/kg bodyweight). 5 rats per group were either injected intraperitoneally or subcutaneously. Rats were infested with 30 Dermacentor variabilis nymphs on study days −2, 7, 14, 21, 28, 35 and 30 adult Ctenocephalides fleas on study days −1, 8, 15, 22, 29, 36. Parasite counts were performed on study days 2, 9, 16, 23, 30, 37. Percent efficacy was calculated as arithmetic mean parasite numbers as life attached tick numbers and live flea numbers of the respective study group in comparison to parasite counts on a placebo-treated control group. Infestation of groups with less than 75% efficacy on two consecutive counting occasions will terminated for the respective parasite.

[5] = system: Dermacentor variabilis nymph; assay: Antiparasitic activity after administration to rats: ticks; assay type: in vivo; details: for In-vivo Efficacy SD2 / In-vivo Efficacy SD9 / In-vivo Efficacy SD16 / In-vivo Efficacy SD23 / In-vivo Efficacy SD30 / In-vivo Efficacy SD37: Dermacentor variabilis nymph; for In-vivo Efficacy SD2: study day 2; for In-vivo Efficacy SD9: study day 9; for In-vivo Efficacy SD16: study day 16; for In-vivo Efficacy SD23: study day 23; for In-vivo Efficacy SD30: study day 30; for In-vivo Efficacy SD37: study day 37
Experimental: as §1

[6] = sc, versus parent drug also injected subcutaneously

N#CC1(N(COC(=O)[C@H]2CC[C@H](C(=O)O)CC2)C(=O)c2cc(-c3cnn(-c4c(Cl)cc(C(F)(C(F)(F)F)C(F)(F)F)cc4OC(F)(F)F)c3)ccc2Cl)CC1 [Example 11, (trans)-4-({[(2-Chloro-5-{1-[2-chloro-4-(1,1,1,2,3,3,3-heptafluoropropan-2-yl)-6-(trifluoromethoxy)phenyl]-1H-pyrazol-4-yl}benzoyl)(1-cyanocyclopropyl)amino]methoxy}carbonyl)cyclohexane-1-carboxylic acid]
solubility at 24 h [1]: 5 µg/mL (≈ 6 µM)
recovery at 24 h, 0.1 mg/mL [2]: 100%
recovery at 0.17 h, 39 µg/mL [3]: 98%
recovery at 0.5 h, 39 µg/mL [3]: 96%
recovery at 1 h, 39 µg/mL [3]: 92%
recovery at 1.5 h, 39 µg/mL [3]: 89%
recovery at 2 h, 39 µg/mL [3]: 86%
recovery at 4 h, 39 µg/mL [3]: 74%
In-vivo Efficacy SD2 ([4]; 12.84 mg/kg sc): 100%
In-vivo Efficacy SD9 ([4]; 12.84 mg/kg sc): 100%
In-vivo Efficacy SD16 ([4]; 12.84 mg/kg sc): 100%
In-vivo Efficacy SD23 ([4]; 12.84 mg/kg sc): 100%
In-vivo Efficacy SD30 ([4]; 12.84 mg/kg sc): 97%
In-vivo Efficacy SD37 ([4]; 12.84 mg/kg sc): 76%
In-vivo Efficacy SD2 ([5]; 12.84 mg/kg sc): 100%
In-vivo Efficacy SD9 ([5]; 12.84 mg/kg sc): 100%
In-vivo Efficacy SD16 ([5]; 12.84 mg/kg sc): 100%
In-vivo Efficacy SD23 ([5]; 12.84 mg/kg sc): 100%
In-vivo Efficacy SD30 ([5]; 12.84 mg/kg sc): 96%
In-vivo Efficacy SD37 ([5]; 12.84 mg/kg sc): 71%

N#CC1(N(COC(=O)CCCC(=O)O)C(=O)c2cc(-c3cnn(-c4c(Cl)cc(C(F)(C(F)(F)F)C(F)(F)F)cc4OC(F)(F)F)c3)ccc2Cl)CC1 [Example 9, 5-{[(2-Chloro-5-{1-[2-chloro-4-(1,1,1,2,3,3,3-heptafluoropropan-2-yl)-6-(trifluoromethoxy)phenyl]-1H-pyrazol-4-yl}benzoyl)(1-cyanocyclopropyl)amino]methoxy}-5-oxopentanoic acid]
solubility at 24 h [1]: 10 µg/mL (≈ 12.6 µM)
recovery at 24 h, 0.1 mg/mL [2]: 100%
recovery at 0.17 h, 39 µg/mL [3]: 89%
recovery at 0.5 h, 39 µg/mL [3]: 77%
recovery at 1 h, 39 µg/mL [3]: 66%
recovery at 1.5 h, 39 µg/mL [3]: 56%
recovery at 2 h, 39 µg/mL [3]: 48%
recovery at 4 h, 39 µg/mL [3]: 29%
In-vivo Efficacy SD2 ([4]; 12.22 mg/kg sc): 100%
In-vivo Efficacy SD9 ([4]; 12.22 mg/kg sc): 97%
In-vivo Efficacy SD16 ([4]; 12.22 mg/kg sc): 96%
In-vivo Efficacy SD23 ([4]; 12.22 mg/kg sc): 97%
In-vivo Efficacy SD30 ([4]; 12.22 mg/kg sc): 91%
In-vivo Efficacy SD37 ([4]; 12.22 mg/kg sc): 46%
In-vivo Efficacy SD2 ([5]; 12.22 mg/kg sc): 99%
In-vivo Efficacy SD9 ([5]; 12.22 mg/kg sc): 100%
In-vivo Efficacy SD16 ([5]; 12.22 mg/kg sc): 96%
In-vivo Efficacy SD23 ([5]; 12.22 mg/kg sc): 98%
In-vivo Efficacy SD30 ([5]; 12.22 mg/kg sc): 85%
In-vivo Efficacy SD37 ([5]; 12.22 mg/kg sc): 49%

N#CC1(N(COC(=O)c2ccc(C(=O)O)cc2)C(=O)c2cc(-c3cnn(-c4c(Cl)cc(C(F)(C(F)(F)F)C(F)(F)F)cc4OC(F)(F)F)c3)ccc2Cl)CC1 [Example 3, 4-({[(2-Chloro-5-{1-[2-chloro-4-(1,1,1,2,3,3,3-heptafluoropropan-2-yl)-6-(trifluoromethoxy)phenyl]-1H-pyrazol-4-yl}benzoyl)(1-cyanocyclopropyl)amino]methoxy}carbonyl)benzoic acid]
solubility at 24 h [1]: 3 µg/mL (≈ 3.63 µM)
recovery at 24 h, 0.1 mg/mL [2]: 99%
recovery at 0.17 h, 39 µg/mL [3]: 100%
recovery at 0.5 h, 39 µg/mL [3]: 100%
recovery at 1 h, 39 µg/mL [3]: 100%
recovery at 1.5 h, 39 µg/mL [3]: 100%
recovery at 2 h, 39 µg/mL [3]: 100%
recovery at 4 h, 39 µg/mL [3]: 100%
In-vivo Efficacy SD2 ([4]; 12.74 mg/kg sc): 100%
In-vivo Efficacy SD9 ([4]; 12.74 mg/kg sc): 100%
In-vivo Efficacy SD16 ([4]; 12.74 mg/kg sc): 100%
In-vivo Efficacy SD23 ([4]; 12.74 mg/kg sc): 96%
In-vivo Efficacy SD30 ([4]; 12.74 mg/kg sc): 80%
In-vivo Efficacy SD37 ([4]; 12.74 mg/kg sc): 55%
In-vivo Efficacy SD2 ([5]; 12.74 mg/kg sc): 99%
In-vivo Efficacy SD9 ([5]; 12.74 mg/kg sc): 98%
In-vivo Efficacy SD16 ([5]; 12.74 mg/kg sc): 93%
In-vivo Efficacy SD23 ([5]; 12.74 mg/kg sc): 96%
In-vivo Efficacy SD30 ([5]; 12.74 mg/kg sc): 85%
In-vivo Efficacy SD37 ([5]; 12.74 mg/kg sc): 48%

Cn1nc(C(F)(F)C(F)(F)F)c(C(F)(F)F)c1-n1cc(-c2ccc(Cl)c(C(=O)N(COC(=O)CCCC(=O)O)C3(C#N)CC3)c2)cn1 [Example 4, 5-{[{2-Chloro-5-[2′-methyl-5′-(pentafluoroethyl)-4′-(trifluoromethyl)-2′H-[1,3′-bipyrazol]-4-yl]benzoyl}(1-cyanocyclopropyl)amino]methoxy}-5-oxopentanoic acid]
solubility at 24 h [1]: 179 µg/mL (≈ 257 µM)
recovery at 24 h, 0.1 mg/mL [2]: 100%
recovery at 0.17 h, 39 µg/mL [3]: 73%
recovery at 0.5 h, 39 µg/mL [3]: 42%
recovery at 1 h, 39 µg/mL [3]: 18%
recovery at 1.5 h, 39 µg/mL [3]: 9%
recovery at 2 h, 39 µg/mL [3]: 0%
recovery at 4 h, 39 µg/mL [3]: 0%
flea efficacy on rats compared with parent drug [4, 6]: superior
tick efficacy on rats compared with parent drug [5, 6]: superior
